# Laboratory results reported in patent US20130295143A1, “ELECTROPROCESSING OF ACTIVE PHARMACEUTICAL INGREDIENTS” (Massachusetts Institute of Technology, priority 2012, published 2013).
# Entries after “also recorded” stand apart in the source; their conditions may differ.
# How the values were obtained:
# Format in all cases: physicochemical
# [1] = Drug loading in electrospun fibers by UV-vis spectroscopy; conditions: 1:2 API:PVP, nominal API loading 33 wt %; average of three measurements
# Procedure: In order to determine the actual drug loading in the electrospun fibers, samples were analyzed with a Perkin-Elmer (Waltham, Mass.) double-beam Lambda25 UV-vis spectrophotometer. A standard curve was prepared for ABZ in methanol for concentrations from 0.005 mg/mL to 0.05 mg/mL at an absorbance of 295 nm and for FAM in methanol for concentrations from 0.002 mg/mL to 0.035 mg/mL at an absorbance of 286 nm. […] A known mass of electrospun mat was dissolved in a known volume of methanol and diluted such that the expected concentration of API fell within the concentration ranges covered by the standard curves. From the resulting measured concentration, the mass of API in the original mat sample, and thus the weight percent API in the electrospun mat was calculated. Three measurements were made per API and were averaged to give the reported value.
# [2] = Polymorphism of API before and after electrospinning (XRD, DSC); conditions: free-surface electrospinning from PVP/ethanol suspension
# Procedure: Scanning electron microscopy (SEM) was used to analyze the morphology of the fibers. A Quorum Technologies SC7640 high resolution gold/palladium sputter coater was used to coat the samples, and a JEOL 6060 SEM at 5 kV operating voltage was used to obtain images. Both X-ray diffraction (XRD) and differential scanning calorimetry (DSC) were used to confirm the presence of crystals and analyze the polymorph present in the electrospun fibers. XRD was performed on a PANalytical X′Pert Pro with a reflection-transmission spinner PW 3064/60 sample stage and a Cu X-ray source with a 1.54 Å wavelength. DSC was performed on a TA DSC Q2000 instrument using a 2-6 mg sample in an aluminum sample pan. The materials were heated at 10° C./min to 250° C. and 200° C. for ABZ and FAM, respectively.
# [3] = USP dissolution test of compressed electrospun tablets vs compressed powder tablets; conditions: USP apparatus II, 50 rpm, 37° C., 900 mL; 0.1 N HCl for ABZ, 0.1 M Phosphate buffer for FAM; 150 mg 9 mm tablets, 1:2 API:PVP
# Procedure: Powder tablets were prepared by weighing out 50 mg API powder and 100 mg PVP powder, mixing for 1 min, and pressing into 9 mm tablets using the same press with the same insertion depth. The electrospun tablets were compared to the compressed powder tablets for analysis. […] Dissolution was performed using a Varian VK 7025 dissolution bath (Agilent, Santa Clara, Calif.) and a Cary 50 Bio UV spectrophotometer (Agilent, Santa Clara, Calif.). For ABZ the standard USP methods were used with 900 mL 0.1 N HCl media, apparatus II, 50 rpm paddle speed and a temperature of 37° C. For FAM standard USP methods were used with 900 mL 0.1 M Phosphate buffer media, apparatus II, 50 rpm paddle speed, and a temperature of 37° C. Measurements were made every minute for 90 minutes by probes inserted in the bath and connected to the spectrophotometer by fiber optic cables.
SMILES,average loading of API in the electrospun fibers [1] [wt %],polymorphism of the API through the electrospinning process [2],"dissolution amount, electrospun formulation relative to compressed powder tablet [3]"
"CCCSc1ccc2nc(NC(=O)OC)[nH]c2c1 [ABZ, albendazole]",31,retained their polymorphism throughout processing; also recorded: not significantly affected,more than twice the dissolution amount
"NC(N)=Nc1nc(CSCCC(N)=NS(N)(=O)=O)cs1 [FAM, famotidine]",26,retained their polymorphism throughout processing,more than twice the dissolution amount
